According to US20260306452A1, “5-METHOXY-N,N-DIMETHYLTRYPTAMINE (5-MEO-DMT) PHARMACEUTICAL COMPOSITIONS” (Beckley Psytech Limited, priority 2023, published 2026):
Where a name gives a salt, the structure may show the parent alone. Read-outs that look alike come from different tables or passages of the source.

Key:
[1] = Phase 1 single ascending dose study, intranasal 5-MeO-DMT HCl, plasma pharmacokinetics; assay type: in vivo, human (healthy subjects)
Method: In an embodiment, there is provided a dose-proportional salt of 5-MeO-DMT for use in the methods disclosed herein. In an embodiment, the dose-proportional salt of 5-MeO-DMT is the benzoate salt. A double-blind, randomised, Phase 1, single ascending dose study to evaluate the safety, tolerability and pharmacokinetic profile of intranasal 5-MeO-DMT HCl (5-MeO-DMT HCl, HPMC, water for injection (WFI) and a sodium hydroxide solution to adjust pH) in healthy subjects was performed.

[2] = assay type: in vivo, human
Description: For example, some subjects report nasal discomfort when treated with a single intranasal dose of a salt of 5-MeO-DMT. Additionally, some subjects experienced nausea and vomiting when given a higher single dose of a salt of 5-MeO-DMT. So, the frequency/likelihood of physical discomfort when using the 5-MeO-DMT salt should be minimised or substantially eliminated.

[3] = assay type: in vivo, human (healthy subjects)
Method: A double-blind, randomised, Phase 1, single ascending dose study to evaluate the safety, tolerability and pharmacokinetic profile of intranasal 5-MeO-DMT benzoate in healthy subjects was performed.

[4] = Hygroscopicity / water uptake; assay type: physicochemical; conditions: for total water uptake: between 0% RH and 90% RH at 25° C.
Method: (§1) In an embodiment, the 5-MeO-DMT is administered as a crystalline form of the benzoate salt. Crystalline forms of the benzoate salt are disclosed in WO2021250434 and are incorporated herein. Crystalline forms of the hydrochloride salt are also disclosed in WO2021250434 and are incorporated herein. In an embodiment, crystalline 5-MeO-DMT hydrochloride is characterised by peaks in an X-ray powder diffraction (XRPD) diffractogram at 2θ values of 9.2°±0.1°, 12.2°±0.1°, 14.1°±0.1°, 15.0°±0.1°, 18.5°±0.1°, and 19.5°±0.1°, as measured using an X-ray wavelength of 1.5406 Å. In an embodiment, the 5-MeO-DMT salt is a non-hygroscopic salt. […] The non-hygroscopic, highly soluble HBr salt of 5-MeO-DMT therefore affords the advantage of removing the need for costly and burdensome processing measures, for example the need for low humidity manufacturing environment.

[5] = Stability profile
[6] = Subjective Dose Intensity (SDI) / duration of the trip; assay type: in vivo, human
[7] = Irritation tolerability; conditions: in particular compared to the chloride salt
[8] = 30-item Mystical Experience Questionnaire (MEQ30), mystical / peak experience; assay type: in vivo, human
Description: The MEQ30 is a self-report measure that has been used to measure mystical-type experiences in studies of psychedelics. It is known that the occurrence of a mystical experience, following treatment with a psychedelic, is a primary predictor of therapeutic outcomes in patients. Typically, a complete mystical experience is defined as scoring 60% or more on all four factors of the MEQ30. The four factors of the MEQ30 are: mystical, positive mood, transcendence of time and space, and ineffability. Subjects being treated with the 5-MeO-DMT salt are coached prior to dosing, but nevertheless for some subjects, a rapid onset of an intense Mystical Experience can be unsettling. In such a scenario, the medical practitioners and associated support system is also put under an additional monitoring and care load. So, the frequency/likelihood of rapid onset of an intense Mystical Experience using the 5-MeO-DMT salt should be minimised or substantially eliminated.
Each quadrant of a pie is fully coloured if a value equal to or greater than 3 is reached for that dimension (wherein the four quadrants represent the four factors of the MEQ30: mystical, positive mood, transcendence of time and space, and ineffability). Each pie represents a single individual who received the respective dose. It can be seen that the 4/6 individuals who received 12 mg total dose of 5-MeO-DMT benzoate in a biphasic fashion achieved mystical experiences, which represents a 66% success rate.

[9] = Solubility of salts; assay type: physicochemical; conditions: compared to moderately hygroscopic salts, e.g. benzoate or oxalate
Method: as §1

[10] = 6 mg intranasal, single nostril
[11] = 8 mg intranasal, single nostril
[12] = 10 mg intranasal, single nostril
[13] = 12 mg (biphasic): 4 mg one nostril then 8 mg other nostril
[14] = 12 mg intranasal, single nostril (monophasic)
[15] = 12 mg biphasic vs 12 mg monophasic
[16] = 12 mg total dose, biphasic (4 mg + 8 mg)

COc1ccc2[nH]cc(CCN(C)C)c2c1.Cl [5-MeO-DMT HCl]
mean concentration profiles between doses ([1]; 5 mg, 8 mg, 10 mg, 11 mg and 14 mg intranasal): substantially similar | dose-proportional pharmacokinetics ([1]; intranasal, healthy subjects): does not display dose-proportional pharmacokinetics

COc1ccc2[nH]cc(CCN(C)C)c2c1.O=C(O)c1ccccc1 [5-MeO-DMT benzoate, 5-methoxy-N,N-dimethyltryptamine (5-MeO-DMT) Benzoate]
Vomiting (% subj. incl. PBO) ([2]; 4 mg intranasal): 33% | Vomiting (% subj. incl. PBO) [2, 10]: 0% | Vomiting (% subj. incl. PBO) [2, 11]: 0% | Vomiting (% subj. incl. PBO) [2, 12]: 0% | Vomiting (% subj. incl. PBO) [2, 13]: 17% | Vomiting (% subj. incl. PBO) [2, 14]: 29% | overall tolerability profile ([2]; intranasal): good (and better than the corresponding and better known chloride salt) | AUC inf ([3]; 4 mg intranasal): 5.0 ng·h/mL | Cmax ([3]; 4 mg intranasal): 8.7 ng/mL | Tmax ([3]; 4 mg intranasal): 7.0 min | T½ ([3]; 4 mg intranasal): 22.4 min | AUC inf [3, 10]: 9.8 ng·h/mL | Cmax [3, 10]: 14.9 ng/mL | Tmax [3, 10]: 9.0 min | T½ [3, 10]: 22.2 min | AUC inf [3, 11]: 14 ng·h/mL | Cmax [3, 11]: 22.1 ng/mL | Tmax [3, 11]: 10.6 min | T½ [3, 11]: 17.7 min | AUC inf [3, 12]: 15.4 ng·h/mL | Cmax [3, 12]: 32.3 ng/mL | Tmax [3, 12]: 8.4 min | T½ [3, 12]: 22.7 min | AUC inf [3, 13]: 10.7 ng·h/mL | Cmax [3, 13]: 16.7 ng/mL | Tmax [3, 13]: 27 min | T½ [3, 13]: 16.1 min | peak plasma concentration, comparison [3, 15]: lower peak plasma concentration | rise to peak mean plasma concentration [3, 15]: slower rise to peak mean plasma concentration | mean Cmax ([3]; 12 mg dosage, intranasal): 29 ng/mL | AUC inf [3, 14]: 23 ng·h/mL | Cmax [3, 14]: 28.9 ng/mL | Tmax [3, 14]: 15.3 min | T½ [3, 14]: 26.6 min | observed peak plasma concentration vs prediction ([3]; biphasic administration): significantly lower than that which was expected | dose linearity of pharmacokinetics ([3]; intranasal, healthy subjects): approximately dose linear | hygroscopicity [4]: moderately hygroscopic | stability profile [5]: good stability profile | Duration of the trip (estimate based on intensity) ([6]; 4 mg intranasal): 18 min | Duration of the trip (estimate based on intensity) [6, 10]: 31 min | Duration of the trip (estimate based on intensity) [6, 11]: 40 min | Duration of the trip (estimate based on intensity) [6, 12]: 46 min | Duration of the trip (estimate based on intensity) [6, 13]: 70 min | length of psychedelic experience, comparison [6, 15]: longer psychedelic experience | duration of ‘trip’, comparison ([6]; 12 mg biphasic vs other doses): longer duration of ‘trip’ | Duration of the trip (estimate based on intensity) [6, 14]: 50 min | subjective intensity/mystical experience despite lower peak plasma concentration ([6]; biphasic administration): did not result in a lower subjective intensity/mystical experience | irritation tolerability [7]: good irritation tolerability | efficacy ([8]; 4 mg first dose followed by 8 mg second dose): good efficacy | Peak exp. (%) ([8]; 4 mg intranasal): 0% | Peak exp. (%) [8, 10]: 25% | Peak exp. (%) [8, 11]: 20% | Peak exp. (%) [8, 12]: 60% | Peak exp. (%) [8, 13]: 66% | % peak experience, comparison ([8]; 12 mg biphasic vs other doses): the highest % peak experience | Peak exp. (%) [8, 14]: 60% | individuals who achieved mystical experiences [8, 16]: 4/6 | success rate (mystical experiences, MEQ30) [8, 16]: 66% | MEQ30 score ([8]; single intranasal dose): > 3 | success rate (mystical experiences, MEQ30) ([8]; singular 10 mg dose): 60% | success rate (mystical experiences, MEQ30) ([8]; singular 12 mg dose): 60%

Br.COc1ccc2[nH]cc(CCN(C)C)c2c1 [5-MeO-DMT hydrobromide]
hygroscopicity [4]: substantially non-hygroscopic | solubility [9]: high solubility

COc1ccc2[nH]cc(CCN(C)C)c2c1 [5-MeO-DMT ketoglutarate]
rapid increase of water uptake ([4]; 90% RH): 28.140 w/w | gradual water uptake, lower humidity ([4]; 403RH as printed): 0.13 % w/w | gradual water uptake, upper humidity ([4]; 801 RH as printed): 2.55 w/w

COc1ccc2[nH]cc(CCN(C)C)c2c1.O=C(O)C(=O)O [5-MeO-DMT oxalate]
hygroscopicity [4]: moderately hygroscopic

COc1ccc2[nH]cc(CCN(C)C)c2c1 [5-MeO-DMT phosphate]
hygroscopicity ([4]; listed as phosphate salt): slightly hygroscopic

COc1ccc2[nH]cc(CCN(C)C)c2c1 [5-MeO-DMT tartrate]
total water uptake [4]: approximately 3.3 % w/w | hygroscopicity ([4]; listed as tartrate salt of 5-MeO-DMT): moderately hygroscopic

COc1ccc2[nH]cc(CCN(C)C)c2c1 [5-MeO-DMT tosylate]
total water uptake [4]: approximately 1.9 % w/w | hygroscopicity ([4]; listed as tosylate salt): slightly hygroscopic

COc1ccc2[nH]cc(CCN(C)C)c2c1 [5-MeO-DMT, 5-methoxy-N,N-dimethyltryptamine]
shape of mean plasma concentration curve ([3]; biphasic administration): m-like biphasic curve

CN(C)CCc1c[nH]c2ccc(O)cc12 [Bufotenin]
detection of the O-demethylated metabolite in plasma ([3]; 6 mg dose level of 5-MeO-DMT benzoate, after the 16 minutes time point): only detected at very low levels
